# Laboratory results from patent publication US20230085307A1, “PYRIDAZINONE COMPOUND AND HERBICIDE” (NISSAN CHEMICAL CORPORATION, priority 2019, published 2023).
# Columns and labels:
# late watergrass = test: Test Example 1: herbicidal activity, application before weed generation under submerged conditions (Table 16, symbol A); assay type: in vivo, late watergrass (Echinochloa oryzicola); conditions: 320 g/ha applied herbicide
# Summary of the method: (§1)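 Submerged Wagner pots (alluvial soil, 4 cm water) sown with weed seeds and planted with 2.5-leaf rice seedlings; emulsifiable concentrate diluted in water applied to water surface on sowing day. Held in greenhouse at 25-30 °C; injury scored 0-5 by herbicidal rate after three weeks.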
# Japanese bulrush = test: Test Example 1: herbicidal activity, application before weed generation under submerged conditions (Table 16, symbol B); assay type: in vivo, Japanese bulrush (Schoenoplectus juncoides); conditions: 320 g/ha applied herbicide
# Summary of the method: as §1
# oval-leafed pondweed = test: Test Example 1: herbicidal activity, application before weed generation under submerged conditions (Table 16, symbol C); assay type: in vivo, oval-leafed pondweed (Monochoria vaginalis); conditions: 320 g/ha applied herbicide
# Summary of the method: as §1
# barnyard grass [1] = test: Test Example 3: herbicidal effect by foliage application, Wagner pot (Table 18, symbol H); assay type: in vivo, barnyard grass (Echinochloa crus-galli); conditions: amount of applied herbicide 320 g/ha
# Summary of the method: (§2)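 Plants were sown in alluvial soil held under 0.1–0.5 cm standing water and grown 14 days in a greenhouse at 25–30 °C. An emulsifiable formulation, water-diluted to the set dose, was then sprayed onto the foliage, and effects were scored three weeks later using previously defined criteria.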
# Chinese sprangletop = test: Test Example 3: herbicidal effect by foliage application, Wagner pot (Table 18, symbol D); assay type: in vivo, chinese sprangletop (Leptochloa chinensis); conditions: amount of applied herbicide 320 g/ha
# Summary of the method: as §2
# rice flat sedge = test: Test Example 3: herbicidal effect by foliage application, Wagner pot (Table 18, symbol E); assay type: in vivo, rice flat sedge (Cyperus iria); conditions: amount of applied herbicide 320 g/ha
# Summary of the method: as §2
# southern crabgrass [2] = test: Test Example 4: herbicidal effect by soil treatment (Table 19, symbol F); assay type: in vivo, southern crabgrass (Digitaria ciliaris); conditions: amount of applied herbicide 320 g/ha
# Summary of the method: (§3)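 Emulsion of test compound, water-diluted to predetermined amount, sprayed on soil after sowing (seed depth ~1.5 cm, sterilized diluvial soil). Greenhouse, 25–30° C. Effect graded at three weeks post-spray.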
# green foxtail [3] = test: Test Example 4: herbicidal effect by soil treatment (Table 19, symbol G); assay type: in vivo, green foxtail (Setaria viridis); conditions: amount of applied herbicide 320 g/ha
# Summary of the method: as §3
# barnyard grass [4] = test: Test Example 4: herbicidal effect by soil treatment (Table 19, symbol H); assay type: in vivo, barnyard grass (Echinochloa crus-galli); conditions: amount of applied herbicide 320 g/ha
# Summary of the method: as §3
# wild oat [5] = test: Test Example 4: herbicidal effect by soil treatment (Table 19, symbol I); assay type: in vivo, wild oat (Avena fatua); conditions: amount of applied herbicide 320 g/ha
# Summary of the method: as §3
# blackgrass [6] = test: Test Example 4: herbicidal effect by soil treatment (Table 19, symbol J); assay type: in vivo, blackgrass (Alopecurus myosuroides); conditions: amount of applied herbicide 320 g/ha
# Summary of the method: as §3
# Italian ryegrass [7] = test: Test Example 4: herbicidal effect by soil treatment (Table 19, symbol K); assay type: in vivo, Italian ryegrass (Lolium multiflorum); conditions: amount of applied herbicide 320 g/ha
# Summary of the method: as §3
# windgrass [8] = test: Test Example 4: herbicidal effect by soil treatment (Table 19, symbol L); assay type: in vivo, windgrass (Apera spica-venti); conditions: amount of applied herbicide 320 g/ha
# Summary of the method: as §3
# velvetleaf [9] = test: Test Example 4: herbicidal effect by soil treatment (Table 19, symbol M); assay type: in vivo, velvetleaf (Abutilon theophrasti); conditions: amount of applied herbicide 320 g/ha
# Summary of the method: as §3
# redroot pigweed [10] = test: Test Example 4: herbicidal effect by soil treatment (Table 19, symbol N); assay type: in vivo, redroot pigweed (Amaranthus retroflexus); conditions: amount of applied herbicide 320 g/ha
# Summary of the method: as §3
# lambsquarters [11] = test: Test Example 4: herbicidal effect by soil treatment (Table 19, symbol O); assay type: in vivo, lambsquarters (Chenopodium album); conditions: amount of applied herbicide 320 g/ha
# Summary of the method: as §3
# chickweed [12] = test: Test Example 4: herbicidal effect by soil treatment (Table 19, symbol P); assay type: in vivo, common chickweed (Stellaria media); conditions: amount of applied herbicide 320 g/ha
# Summary of the method: as §3
# persian speedwell [13] = test: Test Example 4: herbicidal effect by soil treatment (Table 19, symbol R); assay type: in vivo, Persian speedwell (Veronica persica); conditions: amount of applied herbicide 320 g/ha
# Summary of the method: as §3
# southern crabgrass [14] = test: Test Example 5: herbicidal effect by foliage application, plastic box (Table 20, symbol F); assay type: in vivo, southern crabgrass (Digitaria ciliaris); conditions: foliage application, 320 g/ha, evaluated three weeks after application
# Summary of the method: (§4)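 Post-emergence foliar test in sterilized diluvial soil. Compound applied as water-diluted emulsion at a predetermined rate to 14-day-old plants; evaluation at three weeks.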
# green foxtail [15] = test: Test Example 5: herbicidal effect by foliage application, plastic box (Table 20, symbol G); assay type: in vivo, green foxtail (Setaria viridis); conditions: foliage application, 320 g/ha, evaluated three weeks after application
# Summary of the method: as §4
# barnyard grass [16] = test: Test Example 5: herbicidal effect by foliage application, plastic box (Table 20, symbol H); assay type: in vivo, barnyard grass (Echinochloa crus-galli); conditions: foliage application, 320 g/ha, evaluated three weeks after application
# Summary of the method: as §4
# wild oat [17] = test: Test Example 5: herbicidal effect by foliage application, plastic box (Table 20, symbol I); assay type: in vivo, wild oat (Avena fatua); conditions: foliage application, 320 g/ha, evaluated three weeks after application
# Summary of the method: as §4
# blackgrass [18] = test: Test Example 5: herbicidal effect by foliage application, plastic box (Table 20, symbol J); assay type: in vivo, blackgrass (Alopecurus myosuroides); conditions: foliage application, 320 g/ha, evaluated three weeks after application
# Summary of the method: as §4
# Italian ryegrass [19] = test: Test Example 5: herbicidal effect by foliage application, plastic box (Table 20, symbol K); assay type: in vivo, Italian ryegrass (Lolium multiflorum); conditions: foliage application, 320 g/ha, evaluated three weeks after application
# Summary of the method: as §4
# windgrass [20] = test: Test Example 5: herbicidal effect by foliage application, plastic box (Table 20, symbol L); assay type: in vivo, windgrass (Apera spica-venti); conditions: foliage application, 320 g/ha, evaluated three weeks after application
# Summary of the method: as §4
# velvetleaf [21] = test: Test Example 5: herbicidal effect by foliage application, plastic box (Table 20, symbol M); assay type: in vivo, velvetleaf (Abutilon theophrasti); conditions: foliage application, 320 g/ha, evaluated three weeks after application
# Summary of the method: as §4
# redroot pigweed [22] = test: Test Example 5: herbicidal effect by foliage application, plastic box (Table 20, symbol N); assay type: in vivo, redroot pigweed (Amaranthus retroflexus); conditions: foliage application, 320 g/ha, evaluated three weeks after application
# Summary of the method: as §4
# lambsquarters [23] = test: Test Example 5: herbicidal effect by foliage application, plastic box (Table 20, symbol O); assay type: in vivo, lambsquarters (Chenopodium album); conditions: foliage application, 320 g/ha, evaluated three weeks after application
# Summary of the method: as §4
# chickweed [24] = test: Test Example 5: herbicidal effect by foliage application, plastic box (Table 20, symbol P); assay type: in vivo, common chickweed (Stellaria media); conditions: foliage application, 320 g/ha, evaluated three weeks after application
# Summary of the method: as §4
# persian speedwell [25] = test: Test Example 5: herbicidal effect by foliage application, plastic box (Table 20, symbol R); assay type: in vivo, Persian speedwell (Veronica persica); conditions: foliage application, 320 g/ha, evaluated three weeks after application
# Summary of the method: as §4
compound,measurement,setting,value
CCCC(=O)Oc1c(C)nn(C)c(=O)c1-c1c(-c2cccc(OC)c2)sc2ccc(F)cc12 [2-210],Herbicidal effect on A: late watergrass (grade 0-5),late watergrass,3 (Herbicidal rate of 40% or more and less than 70%)
same,Herbicidal effect on B: Japanese bulrush (grade 0-5),Japanese bulrush,0 (Herbicidal rate of 5% or less (almost no effect))
same,Herbicidal effect on C: oval-leafed pondweed (grade 0-5),oval-leafed pondweed,0 (Herbicidal rate of 5% or less (almost no effect))
same,herbicidal effect on H: barnyard grass,barnyard grass [1],5 (Herbicidal rate of 90% or more (almost completely withered))
same,herbicidal effect on D: Chinese sprangletop,Chinese sprangletop,5 (Herbicidal rate of 90% or more (almost completely withered))
same,herbicidal effect on E: rice flat sedge,rice flat sedge,5 (Herbicidal rate of 90% or more (almost completely withered))
same,"F: southern crabgrass, herbicidal effect rating",southern crabgrass [2],4 (Herbicidal rate of 70% or more and less than 90%)
same,"G: green foxtail, herbicidal effect rating",green foxtail [3],4 (Herbicidal rate of 70% or more and less than 90%)
same,"H: barnyard grass, herbicidal effect rating",barnyard grass [4],4 (Herbicidal rate of 70% or more and less than 90%)
same,"I: wild oat, herbicidal effect rating",wild oat [5],0 (Herbicidal rate of 5% or less (almost no effect))
same,"J: blackgrass, herbicidal effect rating",blackgrass [6],1 (Herbicidal rate of 5% or more and less than 20%)
same,"K: Italian ryegrass, herbicidal effect rating",Italian ryegrass [7],4 (Herbicidal rate of 70% or more and less than 90%)
same,"L: windgrass, herbicidal effect rating",windgrass [8],0 (Herbicidal rate of 5% or less (almost no effect))
same,"M: velvetleaf, herbicidal effect rating",velvetleaf [9],2 (Herbicidal rate of 20% or more and less than 40%)
same,"N: redroot pigweed, herbicidal effect rating",redroot pigweed [10],5 (Herbicidal rate of 90% or more (almost completely withered))
same,"O: lambsquarters, herbicidal effect rating",lambsquarters [11],1 (Herbicidal rate of 5% or more and less than 20%)
same,"P: chickweed, herbicidal effect rating",chickweed [12],4 (Herbicidal rate of 70% or more and less than 90%)
same,"R: persian speedwell, herbicidal effect rating",persian speedwell [13],5 (Herbicidal rate of 90% or more (almost completely withered))
same,herbicidal effect on F: southern crabgrass (criteria 0-5),southern crabgrass [14],5 (Herbicidal rate of 90% or more (almost completely withered))
same,herbicidal effect on G: green foxtail (criteria 0-5),green foxtail [15],5 (Herbicidal rate of 90% or more (almost completely withered))
same,herbicidal effect on H: barnyard grass (criteria 0-5),barnyard grass [16],4 (Herbicidal rate of 70% or more and less than 90%)
same,herbicidal effect on I: wild oat (criteria 0-5),wild oat [17],0 (Herbicidal rate of 5% or less (almost no effect))
same,herbicidal effect on J: blackgrass (criteria 0-5),blackgrass [18],3 (Herbicidal rate of 40% or more and less than 70%)
same,herbicidal effect on K: Italian ryegrass (criteria 0-5),Italian ryegrass [19],4 (Herbicidal rate of 70% or more and less than 90%)
same,herbicidal effect on L: windgrass (criteria 0-5),windgrass [20],5 (Herbicidal rate of 90% or more (almost completely withered))
same,herbicidal effect on M: velvetleaf (criteria 0-5),velvetleaf [21],5 (Herbicidal rate of 90% or more (almost completely withered))
same,herbicidal effect on N: redroot pigweed (criteria 0-5),redroot pigweed [22],5 (Herbicidal rate of 90% or more (almost completely withered))
same,herbicidal effect on O: lambsquarters (criteria 0-5),lambsquarters [23],4 (Herbicidal rate of 70% or more and less than 90%)
same,herbicidal effect on P: chickweed (criteria 0-5),chickweed [24],5 (Herbicidal rate of 90% or more (almost completely withered))
same,herbicidal effect on R: persian speedwell (criteria 0-5),persian speedwell [25],5 (Herbicidal rate of 90% or more (almost completely withered))
